Molecules are shown by their SMILES.

Results on 1 molecule are retold here after publication PMC3942886 (Molecular and cellular biochemistry, 2013).

The test deals with hexokinase (from baker's yeast purchased from Sigma). As to the kind of experiment: pyruvate kinase/lactate dehydrogenase coupled assay, NADH oxidation. The settings on record: read-out: Km(glucose); positive control; ATP co-substrate. The format is biochemical.

What is called Km is the concentration of substrate that gives half-maximal velocity. As for `OC[C@H]1OC(O)[C@H](O)[C@@H](O)[C@@H]1O` (stereo partly shown) [glucose], the Km is approximately 300 µM.
